Assay results from patent US10722491B2, “Phenol compound and combination of same with a benzodiazepine fused to 1,4-dihydropyridine for treating diseases of the central nervous and vascular systems” (UNIVERSIDAD DE LA HABANA, priority 2016, dated 2020).

Assay: O2.- radical scavenging in the pyrogallol autoxidation test
Format: biochemical
Method: FIG. 2. Activity of KM-34 (5-100 μM) as radical scavenger O2.− expressed as the percentage inhibition of autoxidation of pyrogallol. The same was obtained by varying the absorbance at 420 nm for 1 minute with respect to a blank uninhibited reaction: without KM-34; the slope was calculated for each concentration of the sample and for the target with a R2>0.98. The reaction takes place in […] Tris-HCl pH 8.2 buffer and was initiated by the addition of 0.134 mM Pirogalol*P<0.05 to the carrier (uninhibited reaction).
A non-enzymatic system generating these radicals was used to evaluate the O2.^− sequestration activity of KM-34, which catalyzes the autoxidation of pyrogallol, forming a colored compound that absorbs at 420 nm (Marklund, 1985).

CC1(C)OC(=O)C(=Cc2ccc(O)c(O)c2)C(=O)O1 [KM-34, 5-[(3,4-dihydroxyphenyl)methylidene]-2,2-dimethyl-1,3-dioxane-4,6-dione]
Concentration significantly (p<0.05) inhibiting formation of oxidized pyrogallol vs vehicle: greater than 5 μM
IC50 (Tris-HCl pH 8.2, read-out: IC50, inhibition of autoxidation of pyrogallol (O2.- scavenging)): 11 µM
Inhibition of oxidation of pyrogallol (from 50 μM): totally inhibited
